In one series the test system is DU-145. The following applies: exposure time period of 72; previous study; read-out: reported IC50 of DXT; cited from earlier work.
For series [1] the following is noted: cited from earlier work.
For series [2] the following is noted: deionized-water; cited from earlier work.
Another series deals with MCF-10A. In words: MTS cell viability / cytotoxicity on normal MCF-10A cells. The following applies: 1% v/v. Type of series: cell-based, human.

Values after ≈ are worked out from the molar mass of the structure shown.

These results are taken from patent US11529328B2, “Formulations for pharmaceutical agents” (The Curators of the University of Missouri, priority 2019, dated 2022).

As for `CC(=O)O[C@@]12CO[C@@H]1C[C@H](O)[C@@]1(C)C(=O)[C@H](O)C3=C(C)[C@@H](OC(=O)[C@H](O)[C@@H](NC(=O)OC(C)(C)C)c4ccccc4)C[C@@](O)([C@@H](OC(=O)c4ccccc4)[C@H]21)C3(C)C` [native DXT, Docetaxel], the IC50 with DU-145 was 8.2 nM. Further, the “log P” value in series [1] is on record as 4.1. Also, the solubility in series [2] is 11.75 µg/mL (≈ 14.5 µM).
As for Triton X, the “cytotoxicity of positive control” value in the series on MCF-10A is “strongly cytotoxic”.
